Experiments:
HEK293 [1] = experiment: maximal inhibition of ZIKV NS1 production (% inhibition); higher = stronger antiviral effect
Protocol: (§1)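 HEK293 cells in 1536-well plates were pre-treated with compound for 1 h, infected with ZIKV (MOI 1) for 24 h, and NS1 antigen (intra- plus extracellular) was measured by TR-FRET. Confirmation used 11-point 1:3 dilutions, and IC50 and maximal inhibition were fitted in GraphPad Prism.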

HEK293 [2] = experiment: IC50 for inhibition of ZIKV NS1 production
Protocol: as §1

HEK293 [3] = experiment: cytotoxicity IC50 (ATP content, uninfected cells); higher = less cytotoxic; details: infection: none

Row | Compound | maximal inhibition (HEK293 [1]) | IC50 (HEK293 [2]) [µM] | cytotoxicity IC50 (HEK293 [3]) [µM]
1 | NS(=O)(=O)c1cccc2c1C(=O)c1cccc(O)c1C2=O | 98 | 2.6 | 2.8
2 | COc1ccc(-c2ccc3ncc4c(c3c2)n(-c2ccc(N3CCNCC3)c(C(F)(F)F)c2)c(=O)n4C)cn1 | 102 | 1.6 | 20
3 | C[C@@H]1O[C@@H](O[C@@H]2C=C3CC[C@@H]4[C@H](CC[C@]5(C)[C@@H](c6ccc(=O)oc6)CC[C@]45O)[C@@]3(C)CC2)[C@H](O)[C@H](O)[C@H]1O | 105 | 0.027 | 0.011
4 | NC(=O)Nc1cc(-c2cccc(F)c2)sc1C(=O)N[C@H]1CCCNC1 | 99 | 0.37 | > 100
5 | CC[C@@H]([C@H](C)O)n1ncn(-c2ccc(N3CCN(c4ccc(OC[C@@H]5CO[C@@](Cn6cncn6)(c6ccc(F)cc6F)C5)cc4)CC3)cc2)c1=O | 73 | 18 | 9.7
6 | Cc1ccc(-c2ncn(-c3ccc(Nc4nccc(-c5cccc(N6CCOCC6)c5)n4)cc3)n2)cn1 | 87 | 1.9 | 9.8
7 | CNc1ccc2oc(C[C@H]3O[C@@]4(CC[C@H]3C)O[C@H]([C@H](C)C(=O)c3ccc[nH]3)[C@H](C)C[C@H]4C)nc2c1C(=O)O | 96 | 6.2 | 20
8 | O=C1CCc2ccc(OCCCCN3CCN(c4cccc(Cl)c4Cl)CC3)cc2N1 | 102 | 25 | 20
9 | COc1cccc(-c2ccc(NC(=O)C3=C(C(=O)O)CCC3)c(F)c2)c1 | 107 | 4 | 1.9
10 | CCc1nc(N)nc(N)c1-c1ccc(Cl)cc1 | 88 | 45 | 14
11 | C[C@H]1CCC/C=C/[C@@H]2C[C@H](O)C[C@H]2[C@H](O)/C=C/C(=O)O1 | 99 | 0.43 | > 100
12 | Cn1c2ccccc2c2c3c(c4c5ccccc5n(CCC#N)c4c21)CNC3=O | 82 | 0.94 | 20
13 | C#CCC(Cc1cnc2nc(N)nc(N)c2n1)c1ccc(C(=O)N[C@@H](CCC(=O)O)C(=O)O)cc1 (stereo partly drawn) | 101 | 0.45 | 0.46
14 | COc1ccc(OC)c(-c2nnc3ccc(-c4ccc(OC)c(O[C@@H]5CCOC5)c4)nn23)c1 | 42 | 40 | > 100
15 | COc1c(C)c2c(c(O)c1C/C=C(\C)CCC(=O)OCCN1CCOCC1)C(=O)OC2 | 105 | 0.53 | > 100
16 | COc1c(C)c2c(c(O)c1C/C=C(\C)CCC(=O)O)C(=O)OC2 | 106 | 0.54 | > 100
17 | COc1c(OCCCN2CCOCC2)ccc2c3n(c(=NC(=O)c4cnc(N)nc4)nc12)CCN3 | 71 | 2.1 | 22
18 | C[C@]12O[C@H](C[C@]1(O)CO)n1c3ccccc3c3c4c(c5c6ccccc6n2c5c31)CNC4=O | 58 | 1.7 | 15
19 | CC(C)c1nn(-c2c(Cl)cccc2Cl)c2nc(Cc3ccc(OCCO)cc3)[nH]c(=O)c12 | 91 | 0.27 | > 100
20 | Cn1c(=O)c(-c2c(Cl)cccc2Cl)cc2cnc(Nc3ccc(N4CCOCC4)cc3)nc21 | 102 | 2.1 | 6
21 | CCCCCCCCc1ccc(CCC(N)(CO)CO)cc1 | 102 | 14 | > 100

Source: the supplement of paper PMC8498969
